In paper PMC11740379, “Novel Enyne-Modified 1,4-Thiazepines as Epidermal Growth Factor Receptor Inhibitors: Anticancer and Computational Studies” (ACS Omega, 2024):
Where two headings read alike, the source gives them in different places.

Columns and labels:
A549 cells [1] = experiment: Annexin V-FITC/PI apoptosis detection by flow cytometry; assay type: cell-based, human; settings: A549, IC50 concentration, 72 h
Description: (§1) Annexin V, a protein with a high affinity for phosphatidylserine (PS), is pivotal in detecting apoptosis. Normally, PS is located in the inner leaflet of the plasma membrane, but during apoptosis, it moves to the outer leaflet, making it a key marker for apoptotic cells.[16] Annexin V binds specifically to PS on the surface of these cells. A secondary dye like propidium iodide (PI) is used to distinguish apoptotic cells from viable ones with intact membranes. We can identify and quantify viable cells (annexin V–, PI–) and apoptotic cells (annexin V+, PI+) by analyzing fluorescence patterns. Here, we employed the FITC Annexin V Apoptosis Detection Kit I from BD Pharmingen. Cells were seeded at a density of 10^6 cells per well in a 6-well plate and exposed to IC50 concentration of TZEP7 for 72 h. Following treatment, cells were rinsed with cold PBS, resuspended in 1 mL of 1× Binding Buffer, and stained with 5 μL of Annexin V FITC and 5 μL of PI. After vortexing, the samples were incubated at room temperature (25 °C) for 15 min in the dark. Postincubation, 400 μL of 1× Binding Buffer was added to each sample, and apoptosis was measured using a BD Accuri C6 Flow Cytometer. Cisplatin was used as an apoptosis-inducing reference drug.

PC-3 cells [2] = experiment: as above; assay type: cell-based, human; settings: PC-3, IC50 concentration, 72 h
Description: as §1

MCF-7 cells [3] = experiment: as above; assay type: cell-based, human; settings: MCF-7, IC50 concentration, 72 h
Description: as §1

[4] = XTT cytotoxicity assay, non-tumorigenic cells; assay type: cell-based, human; settings: human, HEK-293 cells (nontumorigenic), read-out: cell viability
Experimental: (§2) Human cell lines for breast cancer (MCF-7), lung cancer (A549), prostate cancer (PC-3), and nontumorigenic HEK-293 were sourced from the Health Protection Agency (U.K.) and the Interlab Cell Line Collection (Italy). The cells were cultured in RPMI medium (Sigma) supplemented with 10% heat-inactivated fetal bovine serum, 1% penicillin, and 1% L-glutamine, and incubated in a humidified CO2 atmosphere at 37 °C.
(§3) To evaluate the cytotoxic effects of TZEPs, which were dissolved in dimethyl sulfoxide (DMSO), the XTT assay (2,3-bis(2-methoxy-4-nitro-5-sulfophenyl)-2H-tetrazolium-5-carboxanilide) was employed. Cells were plated in 96-well plates at a density of 10^4 cells per well and exposed to varying concentrations of TZEPs (ranging from 1 to 250 μM) for 24, 48, and 72 h. Following the incubation, 100 μL of XTT was added to each well, and the plates were incubated for an additional 4 h at 37 °C. The resulting color change was measured by recording the absorbance at 570 nm using a microplate reader (Tecan).
(§4) The IC50 values, which indicate the concentration of the compound required to inhibit 50% of cancer cell proliferation, were determined using Biosoft CalcuSyn 2.1 software. […] Conversely, an SI less than 1 means the drug is more toxic to normal cells than to target cells, which is undesirable in therapeutic contexts. In the literature, a selectivity index of 2 or higher is generally considered significant, implying that the compound selectively targets diseased cells with relatively low toxicity to healthy cells.[15]

HEK-293 cells = experiment: XTT cytotoxicity assay, non-tumorigenic cells; assay type: cell-based, human; settings: Homo sapiens, HEK293; XTT assay; exposure time of the IC50 not stated (24, 48, 72 h tested)
Experimental: as §2, §3, §4

PC-3 cells [5] = experiment: XTT cytotoxicity assay, prostate cancer cells; assay type: cell-based, human
Experimental: (§5) The cells were cultured in RPMI medium (Sigma) supplemented with 10% heat-inactivated fetal bovine serum, 1% penicillin, and 1% L-glutamine, and incubated in a humidified CO2 atmosphere at 37 °C.
as §3, with “Cells were plated in 96-well plates at a density of 10^4 cells per well and exposed to varying concentrations of TZEPs (ranging from 1 to 250 μM) for 24, 48, and 72 h.” left out
(§6) Conversely, an SI less than 1 means the drug is more toxic to normal cells than to target cells, which is undesirable in therapeutic contexts.

A549 cells [6] = experiment: XTT cytotoxicity assay, lung cancer cells; assay type: cell-based, human; settings: for IC50: A549
Experimental: as §5
as §3, with “Cells were plated in 96-well plates at a density of 10^4 cells per well and exposed to varying concentrations of TZEPs (ranging from 1 to 250 μM) for 24, 48, and 72 h.” left out
as §6

[7] = XTT cytotoxicity assay, non-tumorigenic cells; assay type: cell-based; settings: human, HEK-293 cells (nontumorigenic); HEK293, 0.1 μM; read-out: cell viability
EGFRWT kinase = EGFRWT kinase (Homo sapiens, UniProt P00533); experiment: EGFR kinase inhibition assay (HTRF KinEASE-TK); assay type: biochemical
Experimental: The inhibitory effects of the target compounds on various EGFR kinases were assessed using a homogeneous time-resolved fluorescence (HTRF) assay, employing the HTRF KinEASE-TK kit (Cat# 62TK0PEC, Cisbio).[18] TZEP7 was tested at a range of diluted concentrations in the presence of 1% dimethyl sulfoxide (DMSO), with the kinase and compounds preincubated for 5 min. The reactions were initiated by adding ATP and TK-substrate-biotin, followed by a 60 min incubation at room temperature. […] After a 1 h incubation of the plate, readings were taken on a microplate reader under standard HTRF conditions. IC50 values were calculated using GraphPad Prism 5.0 software. Each reaction was duplicated, and at least three independent determinations were conducted. The data were analyzed using GraphPad Prism.

MCF-7 cells [8] = experiment: XTT cytotoxicity assay, breast cancer cells; assay type: cell-based, human
Experimental: as §5
as §3, with “Cells were plated in 96-well plates at a density of 10^4 cells per well and exposed to varying concentrations of TZEPs (ranging from 1 to 250 μM) for 24, 48, and 72 h.” left out
as §6

Chain of EGFRWT kinase (P00533 25-1210): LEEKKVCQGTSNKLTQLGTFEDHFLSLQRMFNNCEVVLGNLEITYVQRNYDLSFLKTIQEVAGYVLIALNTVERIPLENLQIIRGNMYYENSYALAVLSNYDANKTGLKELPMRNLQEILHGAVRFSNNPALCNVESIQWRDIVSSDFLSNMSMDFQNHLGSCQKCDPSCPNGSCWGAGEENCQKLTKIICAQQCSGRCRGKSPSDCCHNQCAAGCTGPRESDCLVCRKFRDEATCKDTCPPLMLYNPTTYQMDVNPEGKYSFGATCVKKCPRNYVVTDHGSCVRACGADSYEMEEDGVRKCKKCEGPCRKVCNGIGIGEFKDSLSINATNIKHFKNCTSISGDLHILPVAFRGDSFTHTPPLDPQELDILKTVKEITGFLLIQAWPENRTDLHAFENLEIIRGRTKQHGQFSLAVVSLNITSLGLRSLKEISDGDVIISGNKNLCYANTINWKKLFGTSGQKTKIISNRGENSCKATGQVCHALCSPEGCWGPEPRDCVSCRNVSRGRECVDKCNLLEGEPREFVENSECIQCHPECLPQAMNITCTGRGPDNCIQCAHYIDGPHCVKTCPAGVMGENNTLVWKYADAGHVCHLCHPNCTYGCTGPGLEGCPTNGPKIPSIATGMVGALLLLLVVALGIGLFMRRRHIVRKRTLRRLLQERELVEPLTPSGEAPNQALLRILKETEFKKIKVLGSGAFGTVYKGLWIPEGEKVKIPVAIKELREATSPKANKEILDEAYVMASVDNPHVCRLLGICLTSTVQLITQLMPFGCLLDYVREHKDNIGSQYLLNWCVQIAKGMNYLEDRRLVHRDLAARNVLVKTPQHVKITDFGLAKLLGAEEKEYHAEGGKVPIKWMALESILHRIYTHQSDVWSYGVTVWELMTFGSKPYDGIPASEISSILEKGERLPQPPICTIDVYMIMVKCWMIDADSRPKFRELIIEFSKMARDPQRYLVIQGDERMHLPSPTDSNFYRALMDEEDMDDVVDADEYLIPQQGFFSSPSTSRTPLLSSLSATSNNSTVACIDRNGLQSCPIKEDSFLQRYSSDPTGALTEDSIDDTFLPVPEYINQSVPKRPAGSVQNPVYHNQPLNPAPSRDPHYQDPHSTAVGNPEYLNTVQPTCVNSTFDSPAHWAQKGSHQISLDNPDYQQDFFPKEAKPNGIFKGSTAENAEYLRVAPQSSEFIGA

- IC50 (EGFRWT kinase): 0.38 µM
- IC50 (EGFRWT kinase; A549 cells): 0.36 µM
Structure (SMILES): Cc1cc(C2=NCC(=CC#Cc3ccccc3)SC(c3ccc(Cl)cc3)=C2)ccc1F [TZEP7]
- cells in early apoptosis (A549 cells [1]): 15.1%
- cells in late apoptosis (A549 cells [1]): 68.7%
- cells in early apoptosis (PC-3 cells [2]): 13.7%
- cells in late apoptosis (PC-3 cells [2]): 65.6%
- cells in early apoptosis (MCF-7 cells [3]): 22.4%
- cells in late apoptosis (MCF-7 cells [3]): 68.5%
- viability at 1 µM ([4]; HEK293, 1 μM): 57.1%
- viability at 10 µM ([4]; HEK293, 10 μM): 44.1%
- viability at 50 µM ([4]; HEK293, 50 μM): 31.3%
- viability at 100 µM ([4]; HEK293, 100 μM): 24.2%
- IC50 (HEK-293 cells): 54.3 ± 0.9 µM
- IC50 (PC-3 cells [5]; Homo sapiens, PC-3, XTT assay, exposure time of the IC50 not stated (24, 48, 72 h tested), read-out: IC50, prostate cancer (PC-3)): 16.9 ± 1.6 µM
- viability at 0.1 µM (PC-3 cells [5]; Homo sapiens, PC-3, 0.1 μM, read-out: cell viability): 83%
- viability at 1 µM (PC-3 cells [5]; Homo sapiens, PC-3, 1 μM, read-out: cell viability): 71%
- viability at 10 µM (PC-3 cells [5]; Homo sapiens, PC-3, 10 μM, read-out: cell viability): 22%
- viability at 50 µM (PC-3 cells [5]; Homo sapiens, PC-3, 50 μM, read-out: cell viability): 18%
- viability at 100 µM (PC-3 cells [5]; Homo sapiens, PC-3, 100 μM, read-out: cell viability): 12%
- Selectivity index (SI), prostate cancer (PC-3) (PC-3 cells [5]; versus normal cells HEK-293): 3.21
- IC50 (A549 cells [6]; Homo sapiens, XTT assay, exposure time of the IC50 not stated (24, 48, 72 h tested), read-out: IC50, lung cancer (A549)): 12.7 ± 2 µM
- IC50 (A549 cells [6]; Homo sapiens, dose–response curve of Figure 2, read-out: IC50, A549, dose–response curve): 12.1 µM
- viability at 0.1 µM (A549 cells [6]; Homo sapiens, A549, 0.1 μM, read-out: cell viability): 68%
- viability at 1 µM (A549 cells [6]; Homo sapiens, A549, 1 μM, read-out: cell viability): 53%
- viability at 10 µM (A549 cells [6]; Homo sapiens, A549, 10 μM, read-out: cell viability): 40%
- viability at 50 µM (A549 cells [6]; Homo sapiens, A549, 50 μM, read-out: cell viability): 30%
- viability at 100 µM (A549 cells [6]; Homo sapiens, A549, 100 μM, read-out: cell viability): 10%
- Selectivity index (SI), lung cancer (A549) (A549 cells [6]; versus normal cells HEK-293): 4.27
- viability at 0.1 µM [7]: 87.3%
- viability at 0.1 µM (MCF-7 cells [8]; Homo sapiens, MCF7, MCF-7, 0.1 μM, read-out: cell viability): 68%
- viability at 1 µM (MCF-7 cells [8]; Homo sapiens, MCF7, MCF-7, 1 μM, read-out: cell viability): 54%
- viability at 10 µM (MCF-7 cells [8]; Homo sapiens, MCF7, MCF-7, 10 μM, read-out: cell viability): 44%
- viability at 50 µM (MCF-7 cells [8]; Homo sapiens, MCF7, MCF-7, 50 μM, read-out: cell viability): 28%
- viability at 100 µM (MCF-7 cells [8]; Homo sapiens, MCF7, MCF-7, 100 μM, read-out: cell viability): 18%
- IC50 (MCF-7 cells [8]; Homo sapiens, MCF7, XTT assay, exposure time of the IC50 not stated (24, 48, 72 h tested), read-out: IC50, breast cancer (MCF-7)): 14.1 ± 2.1 µM
- IC50 (MCF-7 cells [8]; Homo sapiens, MCF7, dose–response curve of Figure 2, read-out: IC50, MCF-7, dose–response curve): 14.2 µM
- Selectivity index (SI), breast cancer (MCF-7) (MCF-7 cells [8]; versus normal cells HEK-293): 3.85
